Among the data in US12404345B2, “Humanized antibodies against iRHOM2” (SCIRHOM GMBH, priority 2021, dated 2025) are inhibition values, retold here.

The assay concerns PMA-induced release of endogenous HB-EGF from human PBMCs from healthy donors. Briefly: ELISA-based HB-EGF release assay, PMA-induced, PBMCs from healthy donors. In kind it is cell-based. To be noted: PBMC, Batimastat 10 μM, PMA 25 ng/ml, 24 hours. As for the experimental part:
In the following study, ELISA-based HB-EGF release assays were performed to analyze the inhibitory effects of the antibodies of the invention on PMA-induced release of endogenous HB-EGF from primary human material obtained from healthy donors using peripheral blood mononuclear cells (PBMCs).
In brief, on day 1, Nunc black MaxiSorp® 96-well plates (Thermo Fisher Scientific, USA) were coated overnight with 100 μl per well of mouse anti-human HB-EGF capture antibody (provided as part of the DuoSet ELISA kit) at 2 μg/ml TBS at 4° C. […]
After 4 times washing with 350 μl TBS-T (Carl Roth, Germany) per well on a 96-head plate washer (Tecan Group, Switzerland) and careful removal of all buffer traces after the fourth cycle, 100 μl streptavidin-AP (R&D Systems, USA) diluted 1:10,000 in TBS were added to each well and, again protected from direct light, plates were incubated at room temperature for 30 minutes. […] Using an infinite M1000 (Tecan Group, Switzerland) microplate reader, the fluorescence of each well was collected at an excitation wavelength of 435 nm and an emission wavelength of 555 nm.
Background: An ELISA detects its analyte on a solid surface through an enzyme-linked reagent.

`CNC(=O)[C@H](Cc1ccccc1)NC(=O)[C@H](CC(C)C)[C@H](CSc1cccs1)C(=O)NO` [Batimastat]: testing at 10 µM gave an inhibition of 100%.
